Results as given in PubChem BioAssay (NCI).
Several values for one entry are separate records, joined by “and”; a condition that tells them apart may be missing. Equal entries are not always repeated.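 Step 1: Grow cells in 96-well plates. Step 2: Expose to compound for 48 hours at 5 concentrations. Step 3: Interpolate endpoints linearly; if unreached, use highest concentration. Abbreviation: GI50, concentration required for 50% inhibition of growth. TGI denotes the concentration required for complete inhibition of growth.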

Key:
Assay in all cases: inhibition of tumour cell growth, NCI panel, 48 h
TK-10 renal = system: TK-10 renal
SNB-19 CNS = system: SNB-19 CNS
SK-MEL-5 melanoma = system: SK-MEL-5 melanoma
SNB-75 CNS = system: SNB-75 CNS
A498 renal = system: A498 renal
NCI-H460 lung = system: NCI-H460 lung
HOP-62 NSCLC = system: HOP-62 NSCLC
SF-295 CNS = system: SF-295 CNS
KM20L2 colon = system: KM20L2 colon
OVCAR-5 ovarian = system: OVCAR-5 ovarian
HCC-2998 colon = system: HCC-2998 colon
NCI-H23 lung = system: NCI-H23 lung
RXF-631 renal = system: RXF-631 renal
UACC-257 melanoma = system: UACC-257 melanoma
RPMI-8226 leukemia = system: RPMI-8226 leukemia
ACHN renal = system: ACHN renal
SK-MEL-2 melanoma = system: SK-MEL-2 melanoma
COLO 205 colon = system: COLO 205 colon
KM12 colon = system: KM12 colon
OVCAR-8 ovarian = system: OVCAR-8 ovarian
IGROV1 ovarian = system: IGROV1 ovarian
786-0 renal = system: 786-0 renal
MALME-3M melanoma = system: MALME-3M melanoma
HCT-116 colon = system: HCT-116 colon
A549 NSCLC = system: A549 NSCLC
K-562 leukemia = system: K-562 leukemia
SW-620 colon = system: SW-620 colon
UO-31 renal = system: UO-31 renal
UACC-62 melanoma = system: UACC-62 melanoma
RXF 393 renal = system: RXF 393 renal
LOX IMVI melanoma = system: LOX IMVI melanoma
CCRF-CEM leukemia = system: CCRF-CEM leukemia
SK-OV-3 ovarian = system: SK-OV-3 ovarian
DLD-1 colon = system: DLD-1 colon
SN12C renal = system: SN12C renal
HCT-15 colon = system: HCT-15 colon
HOP-92 NSCLC = system: HOP-92 NSCLC
NCI-H522 lung = system: NCI-H522 lung
SNB-78 CNS = system: SNB-78 CNS
M14 melanoma = system: M14 melanoma
OVCAR-3 ovarian = system: OVCAR-3 ovarian
SF-539 CNS = system: SF-539 CNS
SF-268 CNS = system: SF-268 CNS
U251 CNS = system: U251 CNS
SR leukemia = system: SR leukemia
SK-MEL-28 melanoma = system: SK-MEL-28 melanoma
M19-MEL melanoma = system: M19-MEL melanoma
MOLT-4 leukemia = system: MOLT-4 leukemia
HOP-18 NSCLC = system: HOP-18 NSCLC
CAKI-1 renal = system: CAKI-1 renal
HL-60(TB) leukemia = system: HL-60(TB) leukemia
HT29 colon = system: HT29 colon
NCI-H226 lung = system: NCI-H226 lung
EKVX NSCLC = system: EKVX NSCLC
LXFL 529 NSCLC = system: LXFL 529 NSCLC
OVCAR-4 ovarian = system: OVCAR-4 ovarian
DMS 273 small cell lung = system: DMS 273 small cell lung
DMS 114 small cell lung = system: DMS 114 small cell lung
XF 498 CNS = system: XF 498 CNS

`O=C(NCc1ccccc1)C1C(=O)C(=O)N(Cc2ccccc2)C1=O` (configuration not stated) was tested, and the TGI (TK-10 renal) was over 100 µM, the TGI (SNB-19 CNS) was over 100 µM and the TGI (SK-MEL-5 melanoma) was over 100 µM. It also gave a TGI (SNB-75 CNS) of over 100 µM, a TGI (A498 renal) of over 100 µM and a TGI (NCI-H460 lung) of over 100 µM. It also gave a TGI (HOP-62 NSCLC) of over 100 µM, a TGI (SF-295 CNS) of over 100 µM and a TGI (KM20L2 colon) of over 100 µM. It also gave a TGI (OVCAR-5 ovarian) of over 100 µM, a TGI (HCC-2998 colon) of over 100 µM and a TGI (NCI-H23 lung) of over 100 µM. For the same molecule, the TGI (RXF-631 renal) was over 100 µM, the TGI (UACC-257 melanoma) was over 100 µM and the TGI (RPMI-8226 leukemia) was over 100 µM. It also gave a TGI (ACHN renal) of over 100 µM, a TGI (SK-MEL-2 melanoma) of over 100 µM and a TGI (COLO 205 colon) of over 100 µM. The TGI (KM12 colon) was over 100 µM, the TGI (OVCAR-8 ovarian) was over 100 µM and the TGI (IGROV1 ovarian) was over 100 µM. It also gave a TGI (786-0 renal) of over 100 µM, a TGI (MALME-3M melanoma) of over 100 µM and a TGI (HCT-116 colon) of over 100 µM. It also gave a TGI (A549 NSCLC) of over 100 µM, a TGI (K-562 leukemia) of over 100 µM and a TGI (SW-620 colon) of over 100 µM. For the same molecule, the TGI (UO-31 renal) was over 100 µM, the TGI (UACC-62 melanoma) was over 100 µM and the TGI (RXF 393 renal) was over 100 µM. The TGI (LOX IMVI melanoma) was over 100 µM, the TGI (CCRF-CEM leukemia) was over 100 µM and the TGI (SK-OV-3 ovarian) was over 100 µM. It also gave a TGI (DLD-1 colon) of over 100 µM, a TGI (SN12C renal) of over 100 µM and a TGI (HCT-15 colon) of over 100 µM. It also gave a TGI (HOP-92 NSCLC) of over 100 µM, a TGI (NCI-H522 lung) of over 100 µM and a TGI (SNB-78 CNS) of over 100 µM. The TGI (M14 melanoma) was over 100 µM, the TGI (OVCAR-3 ovarian) was over 100 µM and the TGI (SF-539 CNS) was over 100 µM. It also gave a TGI (SF-268 CNS) of over 100 µM, a TGI (U251 CNS) of over 100 µM and a TGI (SR leukemia) of over 100 µM. The TGI (SK-MEL-28 melanoma) was over 100 µM, the TGI (M19-MEL melanoma) was over 100 µM and the TGI (MOLT-4 leukemia) was over 100 µM. It also gave a TGI (HOP-18 NSCLC) of over 100 µM, a TGI (CAKI-1 renal) of over 100 µM and a TGI (HL-60(TB) leukemia) of over 100 µM. The TGI (HT29 colon) was over 100 µM, the TGI (NCI-H226 lung) was over 100 µM and the TGI (EKVX NSCLC) was over 100 µM. For the same molecule, the TGI (LXFL 529 NSCLC) was over 100 µM, the TGI (OVCAR-4 ovarian) was over 100 µM and the TGI (DMS 273 small cell lung) was over 100 µM.

`Cc1cc(C)c(C(=O)C(C)C(c2ccccc2)c2ccc(Cl)cc2)c(C)c1` (configuration not stated) showed a TGI (TK-10 renal) of over 100 µM, a GI50 (SNB-19 CNS) of over 100 µM and a TGI (SNB-19 CNS) of over 100 µM. It also gave a TGI (SK-MEL-5 melanoma) of over 100 µM, a TGI (SNB-75 CNS) of over 100 µM and a TGI (NCI-H460 lung) of over 100 µM. The TGI (HOP-62 NSCLC) was over 100 µM, the TGI (SF-295 CNS) was over 100 µM and the GI50 (KM20L2 colon) was > 100 µM and 47.2 µM. The TGI (KM20L2 colon) was over 100 µM, the TGI (NCI-H23 lung) was over 100 µM and the TGI (RXF-631 renal) was over 100 µM. For the same molecule, the TGI (UACC-257 melanoma) was over 100 µM, the GI50 (RPMI-8226 leukemia) was 82.4 µM and 29.3 µM and the TGI (RPMI-8226 leukemia) was over 100 µM. For the same molecule, the TGI (ACHN renal) was over 100 µM, the GI50 (SK-MEL-2 melanoma) was 9.38 µM and 32.1 µM and the TGI (SK-MEL-2 melanoma) was over 100 µM. It also gave a TGI (COLO 205 colon) of over 100 µM, a TGI (KM12 colon) of over 100 µM and a TGI (OVCAR-8 ovarian) of over 100 µM. For the same molecule, the TGI (IGROV1 ovarian) was over 100 µM, the TGI (786-0 renal) was over 100 µM and the TGI (MALME-3M melanoma) was 71.9 µM and > 100 µM. For the same molecule, the TGI (HCT-116 colon) was over 100 µM, the TGI (A549 NSCLC) was over 100 µM and the TGI (K-562 leukemia) was over 100 µM. The TGI (SW-620 colon) was over 100 µM, the TGI (UO-31 renal) was over 100 µM and the TGI (UACC-62 melanoma) was over 100 µM. It also gave a TGI (RXF 393 renal) of over 100 µM, a TGI (DMS 114 small cell lung) of over 100 µM and a TGI (CCRF-CEM leukemia) of over 100 µM. For the same molecule, the TGI (SK-OV-3 ovarian) was over 100 µM, the TGI (DLD-1 colon) was over 100 µM and the TGI (SN12C renal) was over 100 µM. The TGI (HCT-15 colon) was over 100 µM, the GI50 (HOP-92 NSCLC) was 47.4 µM and > 100 µM and the TGI (HOP-92 NSCLC) was over 100 µM. The GI50 (NCI-H522 lung) was > 100 µM and 15.9 µM, the TGI (NCI-H522 lung) was > 100 µM and 65.5 µM and the TGI (M14 melanoma) was over 100 µM. It also gave a TGI (OVCAR-3 ovarian) of over 100 µM, a TGI (SF-539 CNS) of over 100 µM and a TGI (SF-268 CNS) of over 100 µM. For the same molecule, the TGI (U251 CNS) was over 100 µM, the TGI (SR leukemia) was over 100 µM and the TGI (SK-MEL-28 melanoma) was over 100 µM. For the same molecule, the TGI (M19-MEL melanoma) was over 100 µM, the TGI (MOLT-4 leukemia) was over 100 µM and the TGI (HOP-18 NSCLC) was over 100 µM. For the same molecule, the TGI (CAKI-1 renal) was over 100 µM, the GI50 (HL-60(TB) leukemia) was > 100 µM and 39.6 µM and the TGI (HL-60(TB) leukemia) was over 100 µM. The TGI (HT29 colon) was over 100 µM, the TGI (XF 498 CNS) was over 100 µM and the TGI (NCI-H226 lung) was over 100 µM. It also gave a TGI (EKVX NSCLC) of over 100 µM, a TGI (LXFL 529 NSCLC) of over 100 µM and a TGI (OVCAR-4 ovarian) of over 100 µM.
